Experimental findings from the NIST ThermoML archive (doi:10.1021/je300902c) are described below.

Structures are written as SMILES. Numbers after ± are expanded uncertainties.

A short description of data set [1]: Molar enthalpy of transition or fusion. To be noted: DSC.
Data set [2] can be described thus: molar enthalpy of vaporization or sublimation. Conditions: 298 K; Liquid; DSC.

Regarding `CCCCCCCCCCCCCCCCCCCCCC(=O)O` [docosanoic acid], the “Molar enthalpy of transition or fusion” value came out at 0.853 ± 0.148 kcal/mol in data set [1] (Crystal 2) and 15.8 ± 0.335 kcal/mol in data set [1] (Crystal). Further, the Triple point temperature (Crystal 2, DTA) is recorded as 340.9 ± 0.5 K. Further, for the setting “Crystal, DSC/DTA”, the Normal melting temperature stood at 79.2 ± 0.4 °C. In addition, the molar enthalpy in data set [2] is 37 ± 3.59 kcal/mol.
